{
  "source": "paper PMC11079878",
  "about": "(ACS Omega, 2024)",
  "key": {"[1]": {"test_system": "Lolium multiflorum (Ray grass)", "test": "Herbicidal activity, germination in agar methodology", "assay_type": "in vivo", "conditions": "67 μg/mL in agar; Ryegrass, 12 days; three replicates; Figure S48"}, "[2]": {"test_system": "Lolium multiflorum (Ray grass)", "conditions": "previously reported cyclotetrapeptides; cited from earlier work"}, "[3]": {"conditions": "qualitative; cited from earlier work"}, "[4]": {"test_system": "Microcystis aeruginosa strain (MVCC42)", "test": "Cyanobacteria growth inhibition", "conditions": "colistin 30 μg/mL, positive control; duplicates, 7–10 days"}, "[5]": {"test_system": "HepG2 cells", "conditions": "qualitative; cited from earlier work"}, "[6]": {"test_system": "microcystins in Microcystis (MVCC42) cultures", "assay_type": "cell-based, Microcystis aeruginosa"}},
  "note": "[ ]: non-standard residue; d: D form. NMeF = CN[C@@H](Cc1ccccc1)C(=O)O; NMeA = CN[C@@H](C)C(=O)O",
  "data": [
    {"compound": "NH-MeAla-Leu-D-Phe-β-Ala-OH [compound 29]", "values": [
      {"measurement": "leaf development (%)", "setting": "[1]", "result": "not active"}
    ]},
    {"compound": "cyclo(AL[dF]G) [compound 16]", "values": [
      {"measurement": "radicle growth inhibition (reported activity)", "setting": "[2]", "result": 41, "unit": "%"}
    ]},
    {"compound": "cyclo(NMe-Ala-Leu-NMe-Δ^z-Phe-Gly) (head to tail) [Tentoxin]", "values": [
      {"measurement": "phytotoxic effect on seedlings", "setting": "[3]", "result": "causes seedling chlorosis"}
    ]},
    {"compound": "CCc1cccc(C)c1N(C(=O)CCl)[C@@H](C)COC", "note": "[Positive control, S-metolachlor]", "values": [
      {"measurement": "reduction of chlorophyll a (%)", "setting": "[4]", "result": 99, "unit": "%"}
    ]},
    {"compound": "cyclo([NMeA]L[NMeF]G) [compound 24]", "values": [
      {"measurement": "radicle growth inhibition (reported activity)", "setting": "[2]", "result": 81, "unit": "%"}
    ]},
    {"compound": "versicotide D", "values": [
      {"measurement": "phytotoxicity", "setting": "[3]", "result": "high phytotoxicity"},
      {"measurement": "cytotoxicity on HepG2 cells", "setting": "[5]", "result": "low cytotoxicity"}
    ]},
    {"compound": "cyclo([NMeA]LFG) [compound 17]", "values": [
      {"measurement": "radicle growth inhibition (reported activity)", "setting": "[2]", "result": 71, "unit": "%"}
    ]},
    {"compound": "colistine", "values": [
      {"measurement": "inhibition of microcystins concentration (%)", "setting": "[6]", "result": 90, "unit": "%"}
    ]}
  ]
}
